Source: USRE48267E1, “Variants of C-type natriuretic peptide” (priority 2009, dated 2020)
Marks after values point to notes of the source that are not given here. *1 amine or outer side, *2 acyl side, *3 side chain or, on linkers, in order; H or OH if unused. Where a SMILES comes first, the peptide text is derived from it. Bridges are numbered along the chain shown (N, C = ends). [ ]: non-standard residue; d: D form. The star is where a group is joined. CH3O(CH2CH2O)11CH2CH2CO = COCCOCCOCCOCCOCCOCCOCCOCCOCCOCCOCCOCCC(=O)*; X1 = O=C(C(CN[*:1])c1ccccc1)[*:2]

Columns and labels:
[1] = pharmacokinetics in rats (plasma CNP immunoreactivity by RIA); format: in vivo, rat; details: male, rat, plasma, iv, i.v. 20 nmol/kg
Description: Recombinant wild-type CNP22, CNP37 and PEO24-GANRR-CNP22 […]) (SEQ ID NO: 36) were evaluated. […] Standard and QC samples were prepared. […] Plasma CNP immunoreactivity was employed for pharmacokinetics (PK) analysis. PK analysis was performed using WINNONLIN® Professional (Pharsight Corporation).

[2] = biological target: neutral endopeptidase (NEP) (Homo sapiens, UniProt P08473); test: in vitro NEP cleavage assay (disappearance of non-cleaved CNP variant); details: human, pH 7
neutral endopeptidase (NEP), sequence (P08473 whole entry): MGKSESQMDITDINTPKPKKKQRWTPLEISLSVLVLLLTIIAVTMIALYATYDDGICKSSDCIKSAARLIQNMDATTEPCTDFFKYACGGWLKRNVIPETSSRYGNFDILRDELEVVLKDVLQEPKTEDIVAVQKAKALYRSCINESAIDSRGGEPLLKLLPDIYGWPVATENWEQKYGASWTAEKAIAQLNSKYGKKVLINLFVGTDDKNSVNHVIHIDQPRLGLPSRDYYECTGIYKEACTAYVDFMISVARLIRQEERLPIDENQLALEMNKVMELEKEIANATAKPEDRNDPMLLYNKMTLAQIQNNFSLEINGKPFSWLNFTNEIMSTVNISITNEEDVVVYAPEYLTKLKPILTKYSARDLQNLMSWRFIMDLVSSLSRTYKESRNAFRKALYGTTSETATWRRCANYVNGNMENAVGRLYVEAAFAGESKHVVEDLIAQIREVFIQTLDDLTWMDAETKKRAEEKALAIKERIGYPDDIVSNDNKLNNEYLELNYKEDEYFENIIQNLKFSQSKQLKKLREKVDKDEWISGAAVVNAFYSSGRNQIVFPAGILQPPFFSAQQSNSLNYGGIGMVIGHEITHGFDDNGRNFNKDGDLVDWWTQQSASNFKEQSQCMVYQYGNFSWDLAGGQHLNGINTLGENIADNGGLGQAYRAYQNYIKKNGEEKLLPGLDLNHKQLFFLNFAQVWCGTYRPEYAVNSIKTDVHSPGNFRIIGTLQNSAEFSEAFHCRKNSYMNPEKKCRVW
Outline: (§1)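 Recombinant human NEP (1 ug/mL final) incubated with 100 uM CNP variant in 0.1 M Tris, pH 7, at 37° C for various times, then quenched with EDTA (10 mM final) and heat. Samples reduced and analysed by HPLC and mass spectrometry. Half-life derived from loss of intact variant over time.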

[3] = IgG assay (immunogenicity) in mice; details: mouse, in vivo
Description: An IgG assay was performed to assess whether an IgG immune response was triggered by 5 week exposure of achondroplastic FGFR3^ach mice to CNP22, CNP37 or PEO24-GANRR-CNP22(K4R) (“CNP27-PEO24”) (SEQ ID NO: 36). IgG is the most predominant immunoglobulin in mouse and human serum and is produced as part of the secondary immune response to an antigen. The IgG response to administration of the CNP peptides was determined as follows. 96-well plates were coated with 100 ng/mL CNP22, CNP37 or PEO24-GANRR-CNP22(K4R) (SEQ ID NO: 36) in BupH PBS buffer (Pierce/Thermo, Cat. No. 28372, Rockford, Ill.). After overnight incubation, plates were blocked with Casein-PBS blocking buffer (Pierce/Thermo, Cat. No. 37528) for two hours at room temperature with shaking at 300 rpm. After washing with wash buffer (1×PBS with 0.05% Tween), diluted serum samples from a terminal bleed (diluted 1:25) were added to the plate. Positive and negative controls were also loaded onto the plate. Positive control was 1:25 diluted serum (pooled from 6 individual FVB mice) with anti-CNP22 antibody added (Bachem rabbit anti-CNP22 IgG, Cat. No. T-4222) at 1:1000 dilution. Negative control was the diluted pooled serum. After two hours of incubation, the plates were washed and secondary antibody diluted in blocking buffer was added to the wells. For the mouse serum samples, anti-mouse IgG Fcγ (peroxidase-conjugated affinipure goat anti-mouse IgG, Fcγ fragment, Cat. No. 115-035-071, Jackson Immunoresearch, West Grove, Pa.) was added at a 1:10,000 dilution. For the positive and negative controls, anti-rabbit IgG-HRP (Santa Cruz Biotechnology, Cat. No. SC-2004, Santa Cruz, Calif.) was added to blocking buffer. After two hours of incubation at room temperature with shaking at 300 rpm, plates were washed with wash buffer. 100 uL of TMB (One-step TMB, Pierce/Thermo, Cat. No. 34022) was added to all wells. Plates were incubated at room temperature for 15 minutes with shaking at 300 rpm. Colorimetric reactions were stopped by the addition of 100 uL of 2 N H2SO4. Plates were read at 450 nm (Spectramax, Molecular Devices, Sunnyvale, Calif.) and data was analyzed using SoftMax Pro software (Molecular Devices).
The immunogenic response of wild-type mice administered G-CNP37, PEO12-GANRR-CNP22(K4R) (SEQ ID NO: 36) or Pro-Gly-CNP37, as measured by an increase in serum IgG level, was also assessed by examining terminal bleed serum samples as described above.

[4] = biological target: Recombinant human NEP (Homo sapiens, UniProt P08473); test: in vitro NEP cleavage assay (disappearance of non-cleaved CNP variant)
Recombinant human NEP, sequence (P08473 whole entry): as above
Outline: as §1

[5] = biological target: NPR-B (natriuretic peptide receptor B), murine, expressed endogenously on NIH3T3 cells (murine) (UniProt Q6VVW5); test: cell-based or functional assay
NPR-B (natriuretic peptide receptor B), murine, expressed endogenously on NIH3T3 cells (murine), sequence (Q6VVW5 17-1047): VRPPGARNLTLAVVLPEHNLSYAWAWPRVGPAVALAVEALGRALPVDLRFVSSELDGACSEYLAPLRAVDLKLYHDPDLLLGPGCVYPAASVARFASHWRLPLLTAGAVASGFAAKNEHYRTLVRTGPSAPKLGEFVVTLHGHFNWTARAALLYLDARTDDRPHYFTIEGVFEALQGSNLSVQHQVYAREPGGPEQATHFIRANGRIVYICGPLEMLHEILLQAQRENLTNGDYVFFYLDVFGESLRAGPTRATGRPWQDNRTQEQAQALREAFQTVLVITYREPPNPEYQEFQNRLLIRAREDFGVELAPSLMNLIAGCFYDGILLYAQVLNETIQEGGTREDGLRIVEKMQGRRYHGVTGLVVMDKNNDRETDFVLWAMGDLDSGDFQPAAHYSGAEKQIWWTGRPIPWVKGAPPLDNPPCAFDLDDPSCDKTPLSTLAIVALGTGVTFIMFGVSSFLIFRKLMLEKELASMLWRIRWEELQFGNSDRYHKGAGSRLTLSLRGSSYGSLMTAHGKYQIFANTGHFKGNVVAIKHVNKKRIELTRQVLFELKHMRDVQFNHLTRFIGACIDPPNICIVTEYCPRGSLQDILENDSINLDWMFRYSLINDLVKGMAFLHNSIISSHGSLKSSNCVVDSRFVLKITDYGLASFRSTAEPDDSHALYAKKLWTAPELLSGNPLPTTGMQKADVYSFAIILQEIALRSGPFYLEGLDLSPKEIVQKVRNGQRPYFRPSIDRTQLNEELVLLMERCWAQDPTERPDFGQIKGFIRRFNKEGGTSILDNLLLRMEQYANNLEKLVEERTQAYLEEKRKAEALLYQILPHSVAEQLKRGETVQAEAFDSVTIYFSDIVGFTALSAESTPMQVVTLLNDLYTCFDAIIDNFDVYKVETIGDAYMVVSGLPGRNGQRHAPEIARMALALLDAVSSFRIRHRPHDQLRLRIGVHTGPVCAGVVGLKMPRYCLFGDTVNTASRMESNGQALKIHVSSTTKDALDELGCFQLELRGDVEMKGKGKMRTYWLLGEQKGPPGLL

[6] = test system: wild-type FVB mice; test: efficacy of CNP variants on bone growth in wild-type mice; format: in vivo, mouse; details: 200 nmol/kg s.c. once daily for 5 weeks
Description: The in vivo effects of CNP variants on bone growth were assessed in wild-type mice. Three week old FVB wild-type male mice received daily subcutaneous (s.c.) injection of either vehicle, G-CNP37 (200 nmol/kg) or […]”) (SEQ ID NO: 36) (200 nmol/kg) for 5 weeks. Body weight was measured at least once weekly. Tail length was measured at least once weekly using digital caliper readings, and body length (naso-anal length), bone length (tibia, femur, ulna and humerus), skull length (anterior to posterior cranial segment) and lumbar vertebrae 5 (LV5) length were measured after 5 weeks of treatment using a caliper. X-rays were taken at baseline and after 5 weeks of treatment. […] In another study, various dosing regimens of Pro-Gly-CNP37 were administered for nine weeks followed by one week of recovery. Wild-type FVB mice were dosed s.c. with: • (1) vehicle daily for nine weeks, followed by one week of recovery; • (2) 20 nmol/kg Pro -Gly-CNP37 daily for one week, followed by three doses per week for eight weeks and one week of recovery; • (3) 20 nmol/kg Pro-Gly-CNP37 on alternating weeks; or • (4) 5 nmol/kg Pro-Gly-CNP37 daily for nine weeks followed by one week of recovery.

CC[C@H](C)[C@@H]1NC(=O)[C@H](CCCNC(=N)N)NC(=O)[C@H](CC(=O)O)NC(=O)[C@H](CC(C)C)NC(=O)[C@H](CCCCN)NC(=O)[C@H](CC(C)C)NC(=O)CNC(=O)[C@H](Cc2ccccc2)NC(=O)[C@@H](NC(=O)CNC(=O)[C@H](CCCCN)NC(=O)[C@H](CO)NC(=O)[C@H](CC(C)C)NC(=O)CNC(=O)[C@H](CCCCN)NC(=O)[C@H](CCCCN)NC(=O)[C@H](CC(N)=O)NC(=O)[C@H](C)NC(=O)CNC(=O)[C@H](CCCCN)NC(=O)[C@H](Cc2ccc(O)cc2)NC(=O)[C@H](CCCCN)NC(=O)[C@H](CCCNC(=N)N)NC(=O)[C@H](C)NC(=O)[C@H](CC(N)=O)NC(=O)[C@@H]2CCCN2C(=O)[C@H](Cc2c[nH]cn2)NC(=O)[C@H](CCC(=O)O)NC(=O)[C@@H](N)CCC(N)=O)CSSC[C@@H](C(=O)O)NC(=O)CNC(=O)[C@H](CC(C)C)NC(=O)CNC(=O)[C@H](CO)NC(=O)[C@H](CCSC)NC(=O)[C@H](CO)NC(=O)CNC1=O [Analog BL]
AUC ([1]; read-out: area under the curve, AUC (converted)): 0.026 µM·h | half-life ([1]; read-out: half-life, T1/2): 0.825 h

CC[C@H](C)[C@@H]1NC(=O)[C@H](CCCNC(=N)N)NC(=O)[C@H](CC(=O)O)NC(=O)[C@H](CC(C)C)NC(=O)[C@H](CCCCN)NC(=O)[C@H](CC(C)C)NC(=O)CNC(=O)[C@H](Cc2ccccc2)NC(=O)[C@@H](NC(=O)CNC(=O)CNC(=O)[C@H](CO)NC(=O)[C@H](CC(C)C)NC(=O)CN)CSSC[C@@H](C(=O)O)NC(=O)CNC(=O)[C@H](CC(C)C)NC(=O)CNC(=O)[C@H](CO)NC(=O)[C@H](CCSC)NC(=O)[C@H](CO)NC(=O)CNC1=O [Analog P, CNP22, K4G] (H-GLSGGCFGLKLDRIGSMSGLGC-OH; disulfide 6-22)
half-life at 100 uM ([2]; recombinant human neutral endopeptidase (NEP)): 1.13 h

CC[C@H](C)[C@@H]1NC(=O)[C@H](CCCNC(=N)N)NC(=O)[C@H](CC(=O)O)NC(=O)[C@H](CC(C)C)NC(=O)[C@H](CCCCN)NC(=O)[C@H](CC(C)C)NC(=O)CNC(=O)[C@H](Cc2ccccc2)NC(=O)[C@@H](NC(=O)CNC(=O)[C@H](CCCCN)NC(=O)[C@H](CO)NC(=O)[C@H](CC(C)C)NC(=O)CNC(=O)[C@H](CCCCN)NC(=O)[C@H](CCCCN)NC(=O)[C@H](CC(N)=O)NC(=O)[C@H](C)NC(=O)CNC(=O)[C@H](CCCCN)NC(=O)[C@H](Cc2ccc(O)cc2)NC(=O)[C@H](CCCCN)NC(=O)[C@H](CCCNC(=N)N)NC(=O)[C@H](C)NC(=O)[C@H](CC(N)=O)NC(=O)[C@@H]2CCCN2C(=O)[C@H](Cc2c[nH]cn2)NC(=O)[C@H](CCC(=O)O)NC(=O)[C@H](CCC(N)=O)NC(=O)CN)CSSC[C@@H](C(=O)O)NC(=O)CNC(=O)[C@H](CC(C)C)NC(=O)CNC(=O)[C@H](CO)NC(=O)[C@H](CCSC)NC(=O)[C@H](CO)NC(=O)CNC1=O [Analog DB]
IgG immune response [3]: one out of six | resistance to NEP cleavage (in words) [4]: completely resistant to NEP cleavage | half-life at 100 uM [2]: > 2.67 h

ANP (atrial natriuretic peptide) (from UniProt P01160 124-151)
cGMP response rel. to 1 uM CNP22; 10 nM peptide, NIH3T3 cells (rel. to 1 uM CNP22 (100)) [5]: 10 | cGMP response rel. to 1 uM CNP22; 1 uM peptide, NIH3T3 cells (rel. to 1 uM CNP22 (100)) [5]: 23

CC[C@H](C)[C@@H]1NC(=O)[C@H](CCCNC(=N)N)NC(=O)[C@H](CC(=O)O)NC(=O)[C@H](CC(C)C)NC(=O)[C@H](CCCCN)NC(=O)[C@H](CC(C)C)NC(=O)CNC(=O)C(c2ccccc2)CNC(=O)[C@@H](NC(=O)CNC(=O)[C@H](CCCCN)NC(=O)[C@H](CO)NC(=O)[C@H](CC(C)C)NC(=O)CN)CSSC[C@@H](C(=O)O)NC(=O)CNC(=O)[C@H](CC(C)C)NC(=O)CNC(=O)[C@H](CO)NC(=O)[C@H](CCSC)NC(=O)[C@H](CO)NC(=O)CNC1=O (stereo partly shown) [Analog H] (H-GLSKGC[X1]GLKLDRIGSMSGLGC-OH; disulfide 6-22)
resistance to cleavage at the Cys6-Phe7 bond relative to wtCNP22 [4]: resistance or improved resistance | half-life at 100 uM ([2]; recombinant human NEP (neutral endopeptidase)): 1.33 h

CC[C@H](C)[C@@H]1NC(=O)[C@H](CCCNC(=N)N)NC(=O)[C@H](CC(=O)O)NC(=O)[C@H](CC(C)C)NC(=O)[C@H](CCCCN)NC(=O)[C@H](CC(C)C)NC(=O)CNC(=O)[C@H](Cc2ccccc2)NC[C@@H](NC(=O)CNC(=O)[C@H](CCCCN)NC(=O)[C@H](CO)NC(=O)[C@H](CC(C)C)NC(=O)CN)CSSC[C@@H](C(=O)O)NC(=O)CNC(=O)[C@H](CC(C)C)NC(=O)CNC(=O)[C@H](CO)NC(=O)[C@H](CCSC)NC(=O)[C@H](CO)NC(=O)CNC1=O [Analog A]
resistance to cleavage at the Cys6-Phe7 bond relative to wtCNP22 [4]: resistance or improved resistance | half-life at 100 uM [2]: 0.917 h

CC[C@H](C)[C@@H]1NC(=O)[C@H](CCCNC(=N)N)NC(=O)[C@H](CC(=O)O)NC(=O)[C@H](CC(C)C)NC(=O)[C@H](CCCCN)NC(=O)[C@H](CC(C)C)NC(=O)CNC(=O)[C@H](Cc2ccccc2)NC(=O)[C@@H](NC(=O)CNC(=O)[C@H](CCCNC(=N)N)NC(=O)[C@H](CO)NC(=O)[C@H](CC(C)C)NC(=O)CNC(=O)[C@H](CCCNC(=N)N)NC(=O)[C@H](CCCNC(=N)N)NC(=O)[C@H](CC(N)=O)NC(=O)[C@H](C)NC(=O)CNC(=O)CCOCCOCCOCCOCCOCCOCCOCCOCCOCCOCCOCCOC)CSSC[C@@H](C(=O)O)NC(=O)CNC(=O)[C@H](CC(C)C)NC(=O)CNC(=O)[C@H](CO)NC(=O)[C@H](CCSC)NC(=O)[C@H](CO)NC(=O)CNC1=O [PEO12-GANRR-CNP22(K4R)] ({CH3O(CH2CH2O)11CH2CH2CO}-GANRRGLSRGCFGLKLDRIGSMSGLGC-OH; disulfide 11-27; C-terminus assumed)
IgG immune response [3]: None of the wild-type mice | Anterior to Posterior (Skull) length, relative to vehicle = 100% [6]: 101% | Femur length, relative to vehicle = 100% [6]: 102%* | Humerus length, relative to vehicle = 100% [6]: 102%* | LV5 length, relative to vehicle = 100% [6]: 103% | Naso-Anal (body) length, relative to vehicle = 100% [6]: 104%** | Tail length, relative to vehicle = 100% [6]: 101% | Tibia length, relative to vehicle = 100% [6]: 100% | Ulna length, relative to vehicle = 100% [6]: 96%* | resistance to NEP cleavage (in words) [4]: much greater stability to NEP degradation compared to wtCNP22
